Test results from patent US20120108538A1, “SULFATED POLYSACCHARIDES HAVING ANTIPLASMODIAL ACTIVITY AND METHODS AND PRODUCTS FOR IDENTIFYING ANTIPLASMODIAL ACTIVITY” (priority 2009, published 2012).

Key:
[1] = tested on: P. falciparum 3D7 parasites; assay: Time course of schizont rupture and merozoite invasion/ring formation; assay type: cell-based, Plasmodium falciparum; conditions: 100 μg/mL
Protocol: 50 μL of synchronous 3D7 parasites at high parasitemia (5-10%), at approximately 32 hrs trophozoites were incubated as for GIAs with or without inhibitors (100 μg/mL). From approximately 44-48 hr schizonts parasite samples were collected, every 3 hrs for 15 hrs. Cells were stained and analysed as for GIAs to evaluate parasitemia and parasite stage.
To define the mechanism of action of heparin and heparin-like molecules Applicant performed time-course studies of schizont rupture, merozoite invasion and intra-erythrocytic development of P. falciparum in the presence of heparin. Parasite stages were evaluated using flow-cytometry, differentiating between late stage trophozoites and schizont versus ring stage parasites with ethidium bromide staining. […] No inhibition of infra-erythrocytic growth was observed (data not shown).

[2] = tested on: purified P. falciparum merozoites invading RBCs; assay: Invasion inhibition assay (IIA) using purified merozoites; assay type: cell-based, Plasmodium falciparum
Protocol: Purified merozoites were mixed with uninfected RBCs and cultured using standard conditions in 96 well U-bottom plates at a final volume of 50 μl or 100 μl per well. Specific assay conditions were varied for different test conditions, as described in the Results section of the manuscript. Assays were typically performed under static conditions. Some assays were also performed with agitation of merozoite:RBC suspensions.
To test the activity of inhibitory compounds on invasion (Supporting Information Table 3), E64 treated schizonts were resuspended and filtered in culture medium without human serum. A typical merozoite invasion inhibition assay consisted of filtered merozoites (40 ul) added to RBC suspension (5 ul at […]; final concentration 1% hematocrit) and inhibitory compounds (5 ul at 10-times the final concentration required) in 96-well plates. Merozoite:RBCs suspensions containing inhibitors were incubated for one hour and then washed twice with culture medium to remove inhibitors, then resuspended in fresh culture media and incubated and analysed as for standard merozoite invasion assays. A number of compounds were also tested for inhibition of schizont rupture by incubating late stage schizonts (1-2% parasitaemia, 1% haematocrit in 50 ul) with a 1 in 10 dilution of compounds and monitoring the course of schizont rupture at 3 time points over an 8 hour period by flow cytometry.

MSP1-42 [3] = target: T1, MSP1-42 (Plasmodium falciparum, UniProt Q8I0U8); assay: Heparin-BSA binding assay; parameters: a C-terminal 42kDa (MSP1-42) fragment; made in house; host or cells: E. coli; species or system P. falciparum; conditions: soluble inhibitor
Protocol: Recombinant merozoite antigens were coated (1 μg/mL) onto 96 well plates (Nunc Maxisorb) in HT-PBS overnight at 4° C. Plates were washed and blocked with 1% casein, 1 hr, room temperature. Plates were incubated with heparin-BSA conjugate with soluble inhibitors and detected with anti-BSA (rabbit) (Sigma-Aldrich) antibodies and anti-rabbit -HRP. Detection was performed with 2,2′-azino-bis(3-ethylbenzthiazoline-6-sulphonic acid) (Sigma-Aldrich) monitored for colour change and measured for absorbance at 405 nm. All incubations were performed in HT-PBS 0.1% casein 0:05% Tween20, 1 hr at room temperature. Plates were washed 3 times HT-PBS 0.05% Tween20 between incubations.

MSP1-42 [4] = target: T1, MSP1-42; assay: Binding of native merozoite proteins to heparin-agarose beads with soluble inhibitors; parameters: proteolytically processed into 83 kDa, 30 kDa, 38 kDa and a C-terminal 42kDa (MSP1-42) fragment; endogenous in cells; host or cells: P. falciparum schizont-stage cultures, Triton X-100 extract; species or system P. falciparum; conditions: soluble inhibitor 200 μg/mL
Source text: Synchronized schizont stage (40-48 hr, 5-8% parasitemia) cultures were used for protein extraction. Uninfected erythrocytes were lysed with 0.15% saponin (Kodak) on ice for ten minutes. Remaining pellets were washed three times with cold HT-PBS. Protein from schizonts was extracted with 5 times volume of 1% TritonX100 (TX100) (Sigma-Aldrich, Australia), HT-PBS with protease inhibitors (Roche). Insoluble components were pelleted by centrifugation and supernatants collected. Schizont TX100 extracted proteins were bound to heparin-agarose beads (Sigma-Aldrich, Australia) as previously described. Heparin-agarose beads were washed once with 1% casein in PBS, once in PBS, and then blocked with 1% casein in PBS overnight at 4° C. TX100 merozoite protein extracts where incubated with beads containing 0.1% casein and 200 μg/mL of test inhibitor, or PBS as control, overnight at 4° C.; 50 μL of packed beads and 100 μL protein and inhibitor were used or each test sample. Inhibitors used were heparin and CSC. Unbound proteins in the supernatant were collected through Micro Bio-Spin Chromatography Columns (Bio-Rad). After incubation, beads were washed five times with PBS containing 0.1% casein and 1% Triton X-100. Bound proteins were eluted from beads with 50 μL of warmed reducing sample buffer. Bound and unbound proteins were separated by SDS-PAGE under reducing conditions and blotted onto membranes for probing with antibody detection with anti-MSP1 or anti-EBA175. 36. Baum J, Chen L, Healer J, Lopaticki S, Boyle M, et al. (2009) Reticulocyte-binding protein homologue 5—an essential adhesin involved in invasion of human erythrocytes by Plasmodium falciparum: Int J Parasitol 39: 371-380.

T1 sequence (Q8I0U8 1327-1699): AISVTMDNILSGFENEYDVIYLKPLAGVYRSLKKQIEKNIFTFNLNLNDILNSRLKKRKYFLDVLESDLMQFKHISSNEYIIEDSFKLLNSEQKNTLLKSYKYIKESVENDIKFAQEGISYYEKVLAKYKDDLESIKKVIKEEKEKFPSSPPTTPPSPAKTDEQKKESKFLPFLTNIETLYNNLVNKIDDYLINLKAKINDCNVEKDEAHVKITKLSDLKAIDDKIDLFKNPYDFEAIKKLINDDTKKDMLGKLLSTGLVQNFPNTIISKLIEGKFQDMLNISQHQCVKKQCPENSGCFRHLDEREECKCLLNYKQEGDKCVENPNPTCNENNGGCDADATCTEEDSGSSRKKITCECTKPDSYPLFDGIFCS

Substance: Heparin
- rates of merozoite invasion and ring formation [1]: very low
- schizont rupture compared to control [1]: some delay, but not complete inhibition
- inhibition of intra-erythrocytic growth ([1]; data not shown): No inhibition
- inhibition of merozoite invasion in IIA [2]: effectively inhibited merozoite invasion
- inhibition of heparin-BSA binding to recombinant MSP1-42 (MSP1-42 [3]): inhibited in a concentration-dependent manner
- inhibition of native MSP1-42 binding to heparin-agarose beads (MSP1-42 [4]): effectively inhibited
